Assay results from patent US8410097B2 (priority 2005, dated 2013).
Like-named read-outs stand apart in the source and are kept apart here.

Assays:
[1] = target: T1, CB1 cannabinoid receptor (Rattus norvegicus, UniProt P20272); test: biochemical; type: binding; settings: for Ki: rat forebrain membranes; for Selectivity CB1: CB1 over CB2 binding selectivity (ratio of Ki)
T1 construct: membranes were prepared from rat forebrain membranes; from tissue; host or cells: rat forebrain membranes
Description: Some of the inventive analogs were tested for CB2 receptor binding affinity and for CB1 receptor affinity (to determine selectivity). […] The lower the Ki value the higher the binding affinity. […]
Membranes, previously frozen at −80° C., were thawed on ice. To the stirred suspension was added three volumes of TME (25 mM Tris-HCl buffer, 5 mM MgCl2 and 1 mM EDTA) at a pH 7.4. The suspension was incubated at 4° C. for 30 min. At the end of the incubation, the membranes were pelleted and washed three times with TME.
(§1) The treated membranes were subsequently used in the binding assay described below. Approximately 30 μg of membranes were incubated in silanized 96-well microtiter plate with TME containing 0.1% essentially fatty acid-free bovine serum albumin (BSA), 0.8 nM [^3H] […] Radioactivity was detected using MicroScint 20 scintillation cocktail added directly to the dried filterplates, and the filterplates were counted using a Packard Instruments Top-Count. […] Data collected from three independent experiments performed with duplicate determinations was normalized between 100% and 0% specific binding for [^3H] […] The normalized data was analyzed using a 4-parameter nonlinear logistic equation to yield IC50 values.

[2] = target: CB2 cannabinoid receptor (Mus musculus, UniProt P47936); test: biochemical; type: binding; settings: mouse spleen membranes
Sequence of CB2 cannabinoid receptor (P47936 whole entry): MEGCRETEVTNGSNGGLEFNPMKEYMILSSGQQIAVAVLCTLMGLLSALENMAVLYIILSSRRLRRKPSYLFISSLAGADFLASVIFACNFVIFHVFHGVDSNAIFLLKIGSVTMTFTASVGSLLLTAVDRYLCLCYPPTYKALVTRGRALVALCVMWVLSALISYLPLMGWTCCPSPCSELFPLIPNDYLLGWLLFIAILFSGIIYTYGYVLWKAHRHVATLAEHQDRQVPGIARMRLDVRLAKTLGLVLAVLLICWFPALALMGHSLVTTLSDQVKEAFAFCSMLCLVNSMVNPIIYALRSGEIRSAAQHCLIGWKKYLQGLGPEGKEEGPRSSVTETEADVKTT
Description: Some of the inventive analogs were tested for CB2 receptor binding affinity and for CB1 receptor affinity (to determine selectivity). […] The lower the Ki value the higher the binding affinity.
as §1
Silanized centrifuge tubes were used throughout to minimize receptor loss due to adsorption. The CB2 binding assay was conducted in the same manner as for the CB1 binding assay. The binding affinities (Ki) were also expressed in nanomoles (nM).

[3] = Receptor Affinities Ki (nM) CB1, Table 8
[4] = Receptor Affinities Ki (nM) CB1, Table 9
[5] = Table 9, read-out: Receptor Affinities Ki (nM) CB2
[6] = Table 8, read-out: Receptor Affinities Ki (nM) CB2
[7] = CB1 Ki, Table 6, 0.8 nM [3H] CP-55,940
[8] = Table 6, [3H] CP-55,940, read-out: CB2 Ki
[9] = Table 6, 0.8 nM [3H] CP-55,940, read-out: CB1 Ki
[10] = Receptor Affinities Ki (nM) CB1, Table 10
[11] = Table 10, read-out: Receptor Affinities Ki (nM) CB2
[12] = CB1 Ki, Table 7, 0.8 nM [3H] CP-55,940
[13] = Table 7, [3H] CP-55,940, read-out: CB2 Ki

T1 sequence (P20272 whole entry): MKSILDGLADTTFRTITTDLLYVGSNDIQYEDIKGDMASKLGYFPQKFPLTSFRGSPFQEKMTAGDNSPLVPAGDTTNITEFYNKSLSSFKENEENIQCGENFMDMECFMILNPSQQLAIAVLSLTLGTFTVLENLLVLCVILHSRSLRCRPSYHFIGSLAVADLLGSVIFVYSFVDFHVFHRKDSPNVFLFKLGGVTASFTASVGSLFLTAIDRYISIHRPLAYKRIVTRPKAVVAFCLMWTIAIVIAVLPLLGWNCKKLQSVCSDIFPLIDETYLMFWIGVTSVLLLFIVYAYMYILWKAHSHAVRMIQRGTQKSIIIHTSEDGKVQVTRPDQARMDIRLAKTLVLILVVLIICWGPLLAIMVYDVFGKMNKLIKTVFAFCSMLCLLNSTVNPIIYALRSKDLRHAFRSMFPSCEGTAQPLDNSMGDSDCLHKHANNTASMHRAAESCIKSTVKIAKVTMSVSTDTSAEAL

`Cc1c(C(=O)N(C)C2CCCCC2)nc(-c2ccc(Cl)cc2Cl)n1-c1ccc(C#CCCO)cc1` [Compound 3-8] was tested, and the Ki [1, 3] was 12 nM, the “Selectivity CB1” value ([1]; Table 8) was 36 and the Ki ([2]; Receptor Affinities Ki (nM) CB2, Table 8) was 440 nM.
With `Cc1c(C(=O)NN2CCCCC2)nn(-c2ccc(Cl)cc2Cl)c1-c1ccc(CCCO)cc1` [Compound 4-1, 1-(2,4-Dichloro-phenyl)-5-[4-(3-hydroxy-propyl)-phenyl]-4-methyl-1H-pyrazole-3-carboxylic acid piperidin-1-ylamide] the Ki [1, 4] was 26 nM, the “Selectivity CB1” value ([1]; Table 9) was 8 and the Ki [2, 5] was 230 nM.
In the case of `Cc1c(C(=O)NN2CC3CCCC3C2)nn(-c2ccc(Cl)cc2Cl)c1-c1ccc(C#CCCO)cc1` (stereo not drawn) [Compound 3-6], the Ki [1, 3] is reported as 7 nM, the “Selectivity CB1” value ([1]; Table 8) is reported as 28 and the Ki [2, 6] is reported as 199 nM.
In the case of `O=C(Nc1nc(-c2ccc(Cl)cc2Cl)n(-c2ccc(I)cc2)c1CO)NC1CCCCC1` [Compound 1-39], the Ki [1, 7] is reported as 6.8 nM and the Ki [2, 8] is reported as 1340 nM.
In the case of `CN(C(=O)c1nc(-c2ccc(Cl)cc2Cl)n(-c2ccc(-c3nnn[nH]3)cc2)c1CO)C1CCCCC1` [Compound 1-25], the Ki [1, 9] is reported as 5210 nM and the Ki [2, 8] is reported as 858 nM.
With `O=C(NN1CCCCC1)c1nn(-c2ccc(Cl)cc2Cl)c(-c2ccc(C#CCCO)cc2)c1CO` [Compound 3-2] the Ki [1, 3] was 16 nM, the “Selectivity CB1” value ([1]; Table 8) was 10 and the Ki [2, 6] was 165 nM.
In the case of `Cc1cc(Br)ccc1-n1c(-c2ccc(Cl)cc2Cl)nc(C(=O)NN2CCCCC2)c1C` [Compound 1-1], the Ki [1, 7] is reported as 29.8 nM and the Ki [2, 8] is reported as 808 nM.
With `CN(C(=O)Nc1nc(-c2ccc(Cl)cc2Cl)n(-c2ccc(Br)cc2)c1CO)C1CCCCC1` [Compound 1-40] the Ki [1, 7] was 10 nM and the Ki [2, 8] was 1020 nM.
For `Cc1c(C(=O)NN2CCCCC2)nn(-c2ccc(Cl)cc2Cl)c1-c1ccc(C#CCN(C)C)cc1.Cl` [Compound 5-3], the Ki [1, 10] was 30 nM, the “Selectivity CB1” value ([1]; Table 10) was 2.2 and the Ki [2, 11] was 66 nM.
In the case of `Cc1c(C(=O)NN2CCCCC2)nc(-c2ccc(Cl)cc2Cl)n1-c1ccc(Br)cc1` [Compound 1-2], the Ki [1, 7] is reported as 11.5 nM and the Ki ([2]; CB2 Ki, Table 6, [3H] CP-55,940) is reported as 462 nM.
In the case of `Cc1c(C(=O)NN2CCCCC2)nn(-c2ccc(Cl)cc2Cl)c1-c1ccc(C#CCN)cc1` [Compound 5-4], the Ki [1, 10] is reported as 21 nM, the “Selectivity CB1” value ([1]; Table 10) is reported as 2 and the Ki [2, 11] is reported as 40 nM.
`O=C(Nc1nc(-c2ccc(Cl)cc2Cl)n(-c2ccc(I)cc2)c1CBr)NC1CCCCC1` [Compound 1-38] showed a Ki [1, 7] of 5 nM and a Ki [2, 8] of 75.3 nM.
With `O=C(NN1CCCCC1)c1nc(-c2ccc(Cl)cc2Cl)n(-c2ccc(-c3cccnc3)cc2)c1CO` [Compound 1-15] the Ki [1, 7] was 23 nM and the Ki [2, 8] was 2780 nM.
For `Cc1c(C(=O)NN2CCCCC2)nc(-c2ccc(Cl)cc2Cl)n1-c1ccc(-c2nnn[nH]2)cc1` [Compound 1-16], the Ki [1, 9] was 404 nM and the Ki [2, 8] was 10700 nM.
In the case of `Cc1c(C(=O)NN2CCCCC2)nn(-c2ccc(Cl)cc2Cl)c1-c1ccc(C#CCN)cc1.Cl` [Compound 5-5], the Ki [1, 10] is reported as 30 nM, the “Selectivity CB1” value ([1]; Table 10) is reported as 1 and the Ki [2, 11] is reported as 30 nM.
With `CN(C(=O)c1nc(-c2ccc(Cl)cc2Cl)n(-c2ccc(Br)cc2)c1CO)C1CCCCC1` [Compound 1-5] the Ki [1, 7] was 28.8 nM and the Ki [2, 8] was 3780 nM.
With `O=C(NN1CCCCC1)c1nn(-c2ccc(Cl)cc2Cl)c(-c2ccc(C#CCO)cc2)c1CO` [Compound 3-4] the Ki [1, 3] was 21 nM, the “Selectivity CB1” value ([1]; Table 8) was 15 and the Ki [2, 6] was 313 nM.
For `Cc1c(C(=O)NN2CCCCC2)nn(-c2ccc(Cl)cc2Cl)c1-c1ccc(C#CCCO)cc1` [Compound 2-2], the Ki [1, 12] was 19.7 nM and the Ki [2, 13] was 441 nM.
With `Cc1c(C(=O)NN2CCCCC2)nn(-c2ccc(Cl)cc2Cl)c1-c1ccc(C#CCCC#N)cc1` [Compound 2-3] the Ki [1, 12] was 0.35 nM and the Ki [2, 13] was 127 nM.
With `Cc1c(C(=O)NN2CCCCC2)nn(-c2ccc(Cl)cc2Cl)c1-c1ccc(C#CCNC(=O)OC(C)(C)C)cc1` [Compound 5-2] the Ki [1, 10] was 68 nM, the “Selectivity CB1” value ([1]; Table 10) was 1.3 and the Ki [2, 11] was 88 nM.
With `O=C(NN1CCCCC1)c1nn(-c2ccc(Cl)cc2Cl)c(-c2ccc(CCCO)cc2)c1CO` [Compound 4-6] the Ki [1, 4] was 21 nM, the “Selectivity CB1” value ([1]; Table 9) was 3 and the Ki [2, 5] was 66 nM.
In the case of `O=C(NC1CCCCC1)c1nc(-c2ccc(Cl)cc2Cl)n(-c2ccc(I)cc2)c1CO` [Compound 1-12], the Ki [1, 7] is reported as 19 nM and the Ki [2, 8] is reported as 22400 nM.
`Cc1c(C(=O)NN2CCCCC2)nn(-c2ccc(Cl)cc2Cl)c1-c1ccc(C#CC2(O)CCCCC2)cc1` [Compound 5-7] was tested, and the Ki [1, 10] was 20 nM, the “Selectivity CB1” value ([1]; Table 10) was 3.5 and the Ki [2, 11] was 68 nM.
